Test: recombinant barcode read abundance after kanamycin selection (control-corrected) (log10(CPM+1)); higher = more efficient recombination; sequences stand for … in AGTGCAGAGAAAATCGGCCAGTTTTCTCTGCCTGCAGTCCGCATGCCGT…AGATTTATGCAGCGGACTGCCTTTCTCCCAAAGTGATAAACCGGACAGTATCATGGACCGGTTTTCCCGGTAATCCGTATTTGCAAGGTTGGTTTCACT; site = the 11-nt target
Method in brief: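 For this pooled screen, each oligo contained a promoter, a target, a barcode and the J23119-driven first 104 bases of the bridge RNA. Gibson cloning placed it into a vector supplying the remaining 73 bp and a T7-inducible recombinase, and the pool was co-electroporated into E. coli with a donor plasmid. Recombination efficiency is derived from barcode counts per million at recombinant junctions after averaging and control correction, and is expressed on a log scale as log10(CPM+1), with selection on chloramphenicol/ampicillin/kanamycin plus 0.1 mM IPTG against a chloramphenicol/ampicillin LB agar control.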
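Further: IS621 recombinase and bridge RNA in Escherichia coli cells.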

Sequence | recombinant barcode read abundance (log10)
TAGTGGTCTTGGGTTCTAACCTGTTGCAT (site TAGTGGTCTAT) | 2.04
TAGTGGTCTTGGGTTCTAACCTGTTGCAT (site TAGTGGTCTTA) | 0.215
TAGTGTCCTTGGGTTCTAACCTGTTGCCA (site TAGTGTCCTTG) | 0.357
TAGTGTCCTTGGGTTCTAACCTGTTGCCA (site TGGTGTGCTTG) | 0.142
TAGTGTGCTTGGGTTCTAACCTGTTGCGT (site TAGTGTGCTAA) | 0.0341
TAGTGTGCTTGGGTTCTAACCTGTTGCGT (site TAGTGTGCTAC) | 1.66
TAGTGTTCTTGGGTTCTAACCTGTTGCAT (site TAGTGTCCTAT) | 0.109
TAGTGTTCTTGGGTTCTAACCTGTTGCAT (site TAGTGTTCTAT) | 0.918
TAGTTAGCTTGGGTTCTAACCTGTTGCCA (site TAGTTAGCTAG) | 0.0117
TAGTTAGCTTGGGTTCTAACCTGTTGCCA (site TAGTTAGCTCG) | 0.17
TAGTTAGCTTGGGTTCTAACCTGTTGCCA (site TAGTTAGCTGG) | 0.0516
TAGTTAGCTTGGGTTCTAACCTGTTGCCA (site TAGTTAGCTTG) | 0.418
TAGTTCACTTGGGTTCTAACCTGTTGCAT (site TAGATCACTAT) | 0.0793
TAGTTCACTTGGGTTCTAACCTGTTGCAT (site TAGCTCACTAT) | 0.0603
TAGTTCACTTGGGTTCTAACCTGTTGCAT (site TAGGTCACTAT) | 0.159
TAGTTCACTTGGGTTCTAACCTGTTGCAT (site TAGTTCACTAT) | 0.382
TAGTTTACTTGGGTTCTAACCTGTTGCAG (site ACTCCAGCTAG) | 0.294
TAGTTTACTTGGGTTCTAACCTGTTGCAG (site TAGTTTACTCT) | 0.272
TAGTTTACTTGGGTTCTAACCTGTTGCCA (site TAGTTAACTTG) | 0.0268
TAGTTTACTTGGGTTCTAACCTGTTGCCA (site TAGTTCACTTG) | 0.109

Sequence | recombinant barcode read abundance (log10)
TAGTTTACTTGGGTTCTAACCTGTTGCCA (site TAGTTGACTTG) | 0.0764
TAGTTTACTTGGGTTCTAACCTGTTGCCA (site TAGTTTACTTG) | 0.334
TATAAAACTTGGGTTCTAACCTGTTGCCT (site TATAAAACTAG) | 0.0338
TATAAAACTTGGGTTCTAACCTGTTGCCT (site TATACAACTAG) | 0.0401
TATAAAACTTGGGTTCTAACCTGTTGCCT (site TATAGAACTAG) | 0.0357
TATAAAACTTGGGTTCTAACCTGTTGCCT (site TATATAACTAG) | 0.697
TATAACACTTGGGTTCTAACCTGTTGCCG (site CTACTATCTGC) | 0.0288
TATAACACTTGGGTTCTAACCTGTTGCCG (site TATAACACTCG) | 0.246
TATAACTCTTGGGTTCTAACCTGTTGCCT (site AATAACTCTAG) | 0.0281
TATAACTCTTGGGTTCTAACCTGTTGCCT (site CATAACTCTAG) | 0.198
TATAACTCTTGGGTTCTAACCTGTTGCCT (site GATAACTCTAG) | 0.0978
TATAACTCTTGGGTTCTAACCTGTTGCCT (site TATAACTCTAG) | 0.549
TATACTGCTTGGGTTCTAACCTGTTGCCT (site TATACTACTAG) | 0.0148
TATACTGCTTGGGTTCTAACCTGTTGCCT (site TATACTGCTAG) | 0.0304
TATAGAACTTGGGTTCTAACCTGTTGCCT (site TATAAAACTAG) | 0.119
TATAGAACTTGGGTTCTAACCTGTTGCCT (site TATACAACTAG) | 0.0987
TATAGAACTTGGGTTCTAACCTGTTGCCT (site TATAGAACTAG) | 0.192
TATAGAACTTGGGTTCTAACCTGTTGCCT (site TATATAACTAG) | 0.015
TATCCGACTTGGGTTCTAACCTGTTGCCC (site TATCCGACTAG) | 0.238
TATCCGACTTGGGTTCTAACCTGTTGCCC (site TATCCGACTCG) | 0.146

Sequence | recombinant barcode read abundance (log10)
TATCCGACTTGGGTTCTAACCTGTTGCCC (site TATCCGACTGG) | 0.688
TATCCGACTTGGGTTCTAACCTGTTGCCC (site TATCCGACTTG) | 0.125
TATCGCACTTGGGTTCTAACCTGTTGCCT (site TATCGCACTAG) | 0.0277
TATCGCACTTGGGTTCTAACCTGTTGCCT (site TATGGGACTAG) | 0.0986
TATCGGGCTTGGGTTCTAACCTGTTGCAG (site ATGGACCCTGA) | 0.0316
TATCGGGCTTGGGTTCTAACCTGTTGCAG (site TATCGGGCTCT) | 1.57
TATCGTCCTTGGGTTCTAACCTGTTGCAT (site TACCGTCCTAT) | 0.0483
TATCGTCCTTGGGTTCTAACCTGTTGCAT (site TATCGTCCTAT) | 0.803
TATCTGACTTGGGTTCTAACCTGTTGCCT (site TATCAGACTTG) | 0.0204
TATCTGACTTGGGTTCTAACCTGTTGCCT (site TATCTGACTAG) | 0.202
TATGCTACTTGGGTTCTAACCTGTTGCAT (site AATGCTACTAT) | 1.03
TATGCTACTTGGGTTCTAACCTGTTGCAT (site TATGCTACTAT) | 0.371
TATGCTTCTTGGGTTCTAACCTGTTGCTT (site TATGCTTCTAA) | 0.0973
TATGCTTCTTGGGTTCTAACCTGTTGCTT (site TATGGTTCTAG) | 0.0104
TATGGGTCTTGGGTTCTAACCTGTTGCCT (site TATGGGTCTAG) | 1.04
TATGGGTCTTGGGTTCTAACCTGTTGCCT (site TGTGGGTCTAG) | 0.209
TATGTAGCTTGGGTTCTAACCTGTTGCCG (site TATGTAGCTAG) | 0.486
TATGTAGCTTGGGTTCTAACCTGTTGCCG (site TATGTAGCTCG) | 1.04
TATGTAGCTTGGGTTCTAACCTGTTGCCG (site TATGTAGCTGG) | 0.107

Source: the supplement of paper PMC11208160
